System: ovalbumin (OVA)-sensitized and OVA-challenged Brown Norway rats
Assay: Late inflammatory airway reaction in the ovalbumin-sensitized/-challenged Brown-Norway rat (BAL fluid eosinophils, total cells, protein)
Type: in vivo
Details: for Mean % Inhibition of Eosinophils: BAL fluid 48 h after OVA challenge; for Mean % Inhibition of Eosinophils / Mean % Inhibition of Protein: drug 1 h before challenge, p.o., Roflumilast 1.0, Formoterol 3.0, combination 1.0 + 3.0 μmol/kg; for Mean % Inhibition of Protein: cell-free BAL fluid 48 h after OVA challenge
Protocol: Late Inflammatory Airway Reaction in the Ovalbumin-Sensitized/-Challenged Brown-Norway Rat
Anti-inflammatory activity of Roflumilast and formoterol was determined in ovalbumin (OVA)-sensitized and OVA-challenged Brown Norway rats. Sensitization was done by simultaneous injection of Bordetella pertussis suspension i.p. and OVA/AHG suspension s.c. on day 1, 14 and 21. 28 days after start of sensitization, conscious Brown-Norway rats were challenged by inhalation of the aerosolized OVA solution for 1 h (˜20 ml/h). Non-challenged, only sensitized animals were used as baseline control. The drugs (thoroughly mixed with lactose) or the placebo control (lactose) were administered intratracheally (i.t.) as dry powders 1 h before OVA-challenge. 48 h later, OVA-challenged or non-challenged animals were anaesthetized and bronchoalveolar lavage (BAL) was performed using 3×4 ml BAL buffer per animal. The number of total cells and eosinophils in the BAL fluid, and the concentration of protein in the cell-free BAL fluid were determined. Drug-induced relative changes were calculated and statistically analyzed by the Jonckheere Terpstra test.

Row | SMILES | effects on total cell and eosinophil influx into alveolar space and protein levels in BAL fluid (3 μmol/kg i.t., data failed to reach significance) | Mean % Inhibition of Eosinophils | Mean % Inhibition of Protein | effects on cell infiltration and protein accumulation (0.3 μmol/kg i.t.)
1 | COc1ccc(CC(C)NCC(O)c2ccc(O)c(NC=O)c2)cc1 (stereo not drawn) [Formoterol] | exhibited inhibitory effects | 35% | 46% | –
2 | O=C(Nc1c(Cl)cncc1Cl)c1ccc(OC(F)F)c(OCC2CC2)c1 [Roflumilast] | – | 0% | 15% | did not show any significant effects

Reference: patent US20060142308A1, “Synergistic combination comprising roflumilast and formoterol” (Atlanta Pharma AG, priority 2002, published 2006)
